Assay results reported in patent publication US11464787B2, “Composition comprising oleanolic acid acetate as active ingredient for preventing, alleviating, or treating renal toxicity induced by medicine” (Korea Research Institute of Bioscience and Biotechnology, priority 2016, dated 2022).

How the values were obtained:
[1] = tested on: HEK-293T cells; assay: MTT assay cytotoxicity in HEK-293T human embryonic kidney cells; conditions: for cell survival rate: HEK-293T, highest concentration of 1000 μg/ml, 24 hours
Experimental: HEK-293T cells, human embryonic kidney cells, were cultured in Dulbecco's modified eagle medium (Cat No. 12800-017, Gibco, USA) supplemented with heat-inactivated 10% FBS.
The survival rate of cultured cells was measured by MTT reduction method. As an MTT solution, formazan was formed by mitochondrial dehydrogenases in living cells to confirm cell viability. […] After 24 hours, 20 μl of MTT solution was added to each well, followed by further culturing for 2 hours. Then, the culture solution was removed, and 100 μl of dimethylsulfoxide was added thereto. The absorbance thereof was measured at 570 nm.

[2] = tested on: IL-6; assay: Blood IL-6 by ELISA in cisplatin-induced nephrotoxicity model; assay type: in vivo, C57BL/6 male mice; conditions: cisplatin and oleanolic acid acetate (50 mg/Kg)-treated group, serum ELISA
Experimental: (§1) For the experiment, the mice were kept under constant temperature (23±3° C.), humidity (55±15%) and light irradiation (7:00 to 19:00). After the purchase, the mice were stabilized in the SPF animal breeding room for 1 week and used in the experiment.
(§2) In order to measure inflammatory cytokines in the blood (TNF-α and IL-6), serum was separated and used from blood, and TNF-α and IL-6 were measured using a mouse ELISA kit (R&D system, Minneapolis, Minn., USA). ELISA color development was measured using a Varioskan™ LUX multimode microplate reader (Thermofisher, Sunnyvale, Calif., USA) at a wavelength of 450 nm.

[3] = tested on: peritoneal macrophages; assay: MTT assay cytotoxicity in mouse peritoneal macrophages; assay type: cell-based; conditions: for cell survival rate: maximum concentration of 1000 μg/ml, 24 hours
Experimental: For the isolation of peritoneal macrophage of mice, 3 ml of 3% thioglycollate medium was administered intraperitoneally to 5-6 week old ICR male mice (Oriental Bio, Seoul, Korea). After 3 days, 6 ml to 7 ml of PBS was administered intraperitoneally, followed by a massage of peritoneal cavity to collect the peritoneal fluid. The collected peritoneal fluid was centrifuged and suspended in RPMI (10% FBS, 1% antibiotics), transferred to a plate, and stabilized at 37° C. for 2 hours.
(§3) The absorbance thereof was measured at 570 nm.

[4] = tested on: cisplatin-induced nephrotoxicity; assay: Cisplatin-induced nephrotoxicity animal model: body weight, kidney weight, death rate, BUN; assay type: in vivo, C57BL/6 male mice
Experimental: as §1
After the mouse sacrifice, the body weight was measured, the kidney was isolated, the blood was collected from the heart, and the blood urea nitrogen (BUN), a biochemical indicator related to nephrotoxicity, was measured. The collected mouse blood was centrifuged at 3000 rpm and 4° C. for 15 minutes using a centrifuge to separate the only serum, and the BUN was measured using an automatic analyzer (Fuji Dry-Chem NX500i, Tokyo, Japan).
The death rate was expressed as a percentage by dividing the number of mice killed in each group by the total number of mice.

[5] = tested on: TNF-α; assay: Kidney tissue TNF-α mRNA expression by real-time PCR in cisplatin-induced nephrotoxicity model; assay type: in vivo, C57BL/6 male mice; conditions: cisplatin and oleanolic acid acetate (50 mg/Kg)-treated group
Experimental: as §1
(§4) After the mouse sacrifice, kidneys were separated and homogenized by adding Trizol reagent (Invitrogen, Carlsbad, Calif., USA). To this, chloroform was added to extract RNA, and isopropanol was added to precipitate. After the RNA precipitate was washed with 75% ethanol, the RNA concentration and purity were measured with a 2100 Bioanalyzer System (Agilent Technologies, Santa Clara, Calif., USA), and Taqman reverse transcription reagents kit (Applied Biosystems, Foster City) was used to synthesize cDNA. The expression level of inflammatory factors was measured by real-time PCR using SYBR Green PCR master mix kit (Applied Biosystem, Foster City, Calif., USA).
(§5) In order to examine the expression levels of TNF-α and IL-6, inflammatory cytokines, COX-2, a prostaglandin E2 (PGE2) synthase involved in increasing the vascular permeability of the inflammatory response, and MCP-1, an inflammatory chemokine, Real-time PCR was performed on each gene.

[6] = tested on: MCP-1; assay: Kidney tissue MCP-1 mRNA expression by real-time PCR in cisplatin-induced nephrotoxicity model; assay type: in vivo, C57BL/6 male mice; conditions: cisplatin and oleanolic acid acetate (50 mg/Kg)-treated group
Experimental: as §1, §4, §5

[7] = tested on: TNF-α; assay: Blood TNF-α by ELISA in cisplatin-induced nephrotoxicity model; assay type: in vivo, C57BL/6 male mice; conditions: cisplatin and oleanolic acid acetate (50 mg/Kg)-treated group, serum ELISA
Experimental: as §1, §2

[8] = tested on: IL-6; assay: Kidney tissue IL-6 mRNA expression by real-time PCR in cisplatin-induced nephrotoxicity model; assay type: in vivo, C57BL/6 male mice; conditions: cisplatin and oleanolic acid acetate (50 mg/Kg)-treated group
Experimental: as §1, §4, §5

[9] = tested on: spleen cells; assay: MTT assay cytotoxicity in mouse spleen cells; assay type: cell-based; conditions: all concentrations (100, 300, and 600 μg/ml)
Experimental: For the isolation of mouse spleen cells, 5-6 week old ICR male mice (Oriental Bio, Seoul, Korea) were sacrificed with CO2 and then their spleen was aseptically extracted. The spleen was ground with a filter to separate single spleen cells, centrifuged using centrifugation, and erythrocytes were dissolved using ficoll. Cells from which erythrocytes had been removed were stabilized with RPMI (10% FBS, 1% antibiotics) at 37° C. for 2 hours.
as §3

[10] = tested on: COX-2; assay: Kidney tissue COX-2 mRNA expression by real-time PCR in cisplatin-induced nephrotoxicity model; assay type: in vivo, C57BL/6 male mice; conditions: cisplatin and oleanolic acid acetate (50 mg/Kg)-treated group
Experimental: as §1, §4, §5

Row | Compound | cell survival rate [1] | cytotoxicity (in words) ([1]; human kidney cell lines, compared with oleanolic acid) | IL-6 in the blood [2] | cytotoxicity (in words) [3] | cell survival rate [3] | death rate ([4]; cisplatin 20 mg/kg i.p. and oleanolic acid acetate 50 mg/Kg orally, mice) | BUN value ([4]; cisplatin and oleanolic acid acetate (50 mg/Kg oral)-treated group, serum, day 5, vs cisplatin group) | amount of mRNA expression of TNF-α [5] | amount of mRNA expression of MCP-1 [6] | TNF-α in the blood [7] | amount of mRNA expression of IL-6 [8] | cell survival rate compared with oleanolic acid (in words) [9] | amount of mRNA expression of COX-2 [10]
1 | CC(=O)O[C@H]1CC[C@@]2(C)C(CC[C@]3(C)[C@@H]2CC=C2[C@H]4CC(C)(C)CC[C@]4(C(=O)O)CC[C@]23C)C1(C)C (stereo partly drawn) [oleanolic acid acetate, 4aS,6aR,6aS,6bR,8aR,10S,12aR,14bS-10-hydroxy-2,2,6a,6b,9,9,12a-heptamethyl-1,3,4,5,6,6a,7,8,8a,10,11,12,13,14b-tetradecahydropicene-4a-carboxylic acid acetate] | 43% | concentration-dependently less than that of oleanolic acid | decreased | almost no cytotoxicity | 81% | 44% | decreased | decreased | decreased | decreased | decreased | higher cell survival rate than that of oleanolic acid | decreased
2 | CC1(C)CC[C@]2(C(=O)O)CC[C@]3(C)C(=CC[C@@H]4[C@@]5(C)CC[C@H](O)C(C)(C)[C@@H]5CC[C@]43C)[C@@H]2C1 [oleanolic acid] | 27% | – | – | cytotoxicity in a concentration-dependent manner | 41% | – | – | – | – | – | – | – | –
